# Test results from a melting point compilation (Tetko et al.; mined from patent text by program, amines drawn as free bases though some values may be those of a salt).
row,melting point [°C],Structure (SMILES)
1,140 to 142,C=CCNc1nc(C)ccc1C(=O)OC
2,56 to 57,CCOC(=O)Cc1nc(-c2ccc(Cl)cc2)oc1CC(C)C
3,334 to 336,Cc1c(-c2ccccc2Cl)sc2nc(N)[nH]c(=O)c12
4,120 to 126,Cc1ccc(NC(=O)C(C)(C)C)c(-c2cccc(Br)n2)c1
5,124 to 127,COC(CN(C)C(=O)Nc1nnc(C(C)Oc2ccc(Cl)c(Cl)c2)s1)OC (configuration not stated)
6,104 to 105,COCCNC(=O)c1cccc(-c2cccc3cc(Cc4ccc(Cl)s4)sc23)c1
7,164,CC(C)(CCCc1cccnc1)NC(=O)/C=C/C=C(c1ccc(F)cc1)c1ccc(F)cc1
8,94 to 95,Cc1cc(SCc2ccc(-c3ccc(C(F)(F)F)cn3)cc2)c2c(c1OCC(=O)O)CCO2
9,213 to 214,CNC(=O)[C@H](CO[Si](C)(C)C(C)(C)C)NC(=O)Nc1n[nH]c(=S)s1
10,149 to 151,Cc1nc(N2CCN(Cc3ccc(OC(F)(F)F)cc3)C2=O)sc1C(=O)NC[C@H](O)c1ccccc1
11,112 to 113,COc1ccc(COC(=O)ON=C(C#N)c2ccccc2)cc1
12,149,CC(C)(C)c1ccc(CCOc2ncnc3nccnc23)cc1
13,164 to 166,CCC(=O)Nc1nnc2c3c(c(N4CCOCC4)nn12)CCCC3
14,75 to 80,CN1C(=O)Cc2cnc(N3CCN(C(c4ccccc4)c4ccccc4)CC3)nc21
15,146 to 147,CCOCc1nc2c(N)nc3ccccc3c2n1CCCCS(=O)(=O)NC(C)C
16,72 to 74,N#Cc1ccc(CCCN)cc1
17,263 to 265,COc1cccc2c(Nc3ccccc3C)c(C(=O)CCC(=O)O)cnc12
18,110 to 111,O=c1sc2cc(C(F)(F)F)cc([N+](=O)[O-])c2s1

row,melting point [°C],Structure (SMILES)
1,40.5 to 43.5,OCCOc1cccc(OCc2ccccc2)c1
2,131 to 132,CC(=O)OC[C@H](c1ccccc1)N1C(=O)C=CC1=O
3,206 to 209,CC(C)n1c(=O)nc(-c2ccc3c(c2)CCO3)c2cc3c(cc21)OCO3
4,140 to 143,COc1cc(Nc2nccc(-c3cccc(NC(=O)c4cccnc4)c3)n2)cc(OC)c1OC
5,145 to 146,Cc1ccc([C@@H](Sc2cc(C)ccc2N)[C@H](O)C(N)=O)cc1
6,257 to 260,CC(Nc1ccccc1O)=C1C(=O)OC(=O)C(C(=O)C=Cc2ccc(O)cc2)=C1O
7,212,CCOC(=O)C1CCN(c2ccc(/C=C/C(=O)O)cc2)CC1
8,102 to 105,O=C(CCCC12CCC(=O)N1C(=O)CC2)OCc1ccccc1
9,291 to 293,CCC(=O)Nc1nc(-c2cc(C)cc(C)c2)c(-c2ccncc2)s1
10,131 to 133,C[C@@H](Oc1c(Br)cc(-c2c3ccccc3c(Br)c3sc4ccccc4c23)cc1Br)C(=O)O
11,89 to 90,Cc1ccc(C2NC(C(=O)O)C(C)(C)S2)cc1 (configuration not stated)
12,218 to 220,O=C(CNc1cccc(F)c1)Nc1c(Cl)ccc2nc(N3CC[C@@H](O)C3)ccc12
13,> 275,N#Cc1cccc(/C=C/c2cc(Cl)cnc2N)c1
14,125 to 127,COC(=O)CCCCCNC(=O)/C=C/C=C/c1ccccc1
15,192,C=CCNc1nc(N)nc(-c2ccccc2)c1-c1ccc(=O)n(C(C)C)n1
16,234 to 236,CCN(CC)c1nc2n(n1)Cc1ccccc1-2
17,145 to 146,c1ccc(Cc2n[nH]c(NCCCCOc3cccc(CN4CCCCC4)c3)n2)cc1
18,190 to 192,COCCO[C@@H]1c2ccn3c(-c4ccccc4)c(C)nc3c2N[C@H](c2ccccc2)[C@H]1O

# Second part, the molecule before the results:
row,Structure (SMILES),melting point [°C]
1,COC(=O)C[C@H](O)C[C@H](O)CCc1c(-c2ccc(F)cc2)c(-c2ccc(F)cc2)c(C(=O)Nc2cccc(C(=O)N(C)C)c2)n1C(C)C,95 to 98
2,N#Cc1c(-c2cc3ccccc3s2)nn(-c2ccccc2)c1N,260 to 262
3,Nc1ccc(-c2ccc(N)cc2Br)c(Br)c1,151 to 153
4,CC1(C)CCC(C)(C)C2=C1C=C(CC#Cc1ccc(C(=O)O)cc1)CC2(O)OCc1ccc(C(F)(F)F)cc1 (configuration not stated),222
5,CCCCCCCCCCCC(=O)NC(=O)OCc1nc(C(C)C)c(Sc2cc(Cl)cc(Cl)c2)n1CC,100 to 102
6,Cc1c(Cl)nc(NC=O)nc1Cl,123 to 124
7,O=C(NCCCc1ccncc1)N(C1CCCCC1)C1CCCCC1,143 to 146
8,CC(=O)NC[C@H]1CN(c2ccc(N3CCC(O)(COS(C)(=O)=O)CC3)c(F)c2)C(=O)O1,136 to 138
9,CCCc1nc2c(N)nc(C)c(C)c2n1CCCC(C)=NOC,144 to 146
10,O=C(O)Cc1c(C(=O)c2ccc(OC(F)(F)F)cc2)[nH]c2ccc(Cl)cc12,187
11,"O=C(Nc1cccnc1)NC(CS)Cc1ccccc1 (single isomer, unassigned; (+))",149
12,O=Cc1ccc(N(Cc2ccccc2)Cc2ccccc2)cc1[N+](=O)[O-],67 to 70
13,COc1ccc2cc(Br)sc2c1,62
14,CCN1C(=O)C(C)(C)C(=O)N(C)c2cc(OCCCn3c(=O)c(-c4ccccc4)c(Cl)c4ccccc43)ccc21,122 to 128
15,O=Cc1cc(Cl)ccc1Oc1ccc(Cl)cc1[N+](=O)[O-],128 to 130
16,Cc1nc(C(=O)N(C)C)c2n1-c1ccc(Cl)cc1C(c1ccccc1)=NC2,173 to 175
17,C=CS(=O)(=O)NCc1ccc(C(N)=O)cc1,142 to 144
18,O=C(O)c1cc2c(s1)C1CCC2C1 (configuration not stated),183 to 184
19,Cc1cc(CN(Cc2ccsc2)c2sc(-c3ccc(C(F)(F)F)cc3)nc2C)cc(C)c1OC(C)(C)C(=O)O,90 to 100
20,O=C(O)C1Oc2cc(Cl)c(S(=O)(=O)c3cc(Cl)cc(Cl)c3)cc2O1 (configuration not stated),166 to 169
21,CNC(=O)CC=C(CC(C)C)C(=O)OC(C)(C)C,35 to 36
22,Cc1oc(-c2ccccc2)nc1COc1ccc2c(-c3ccccc3)c(CCl)oc2c1,129 to 130

row,Structure (SMILES),melting point [°C]
1,N#Cc1ccc(C(=CC(=O)N2CCCCC2)n2ccnc2)cc1,160 to 165
2,Cc1cc(N2CCC[C@H]2COc2ccc(CC3SC(=O)NC3=O)cc2)nc2ccccc12 (some centres not stated),95 to 97
3,CS(=O)(=O)c1ccc(-c2cnn(-c3cccc(Cl)c3)c(=O)c2SCc2ccccc2)cc1,142 to 145
4,COc1cccc(C=NNc2ncc(COc3cccc(C(=O)Nc4ccc(C(C)C)c(C)c4)c3)c3ccccc23)c1,125 to 129
5,Cc1cc(F)ccc1-c1nc(NC(C)(CO)CO)nc2c1ccc(=O)n2-c1c(F)cccc1F,158 to 160
6,O=C(Nc1ccc(OCCCN2CCC3(CC2)OCCO3)c2ccccc12)c1cc(F)cc(N2CCCCC2)c1,70 to 72
7,CC(=O)C(=[N+]=[N-])C(=O)CCc1ccc(S(N)(=O)=O)cc1,110 to 112
8,CN(C)c1ccc(C(N)P(O)O)cc1 (configuration not stated),223 to 224
9,Cc1ccc(COC2C(Sc3ccccc3)OC(C)C(OC(=O)c3ccccc3)C2OC(=O)c2ccccc2)cc1 (configuration not stated),81 to 83
10,CC(=O)NCc1ccsc1,46 to 47
11,CC(C)(C)OC(=O)NCc1cccc(OCCC2Oc3ccccc3N(Cc3ccc(Cl)cc3)C2=O)c1 (configuration not stated),114 to 116
12,COC(=O)C(C)(C)OCc1cc2cc(Cl)ccc2n1S(=O)(=O)c1ccc2c(c1)OCO2,90 to 92
13,O=C1Nc2cc(Cl)ccc2C(=O)C1c1cccnc1 (configuration not stated),> 340
14,O=C(N[C@H]1CC[C@H](CCN2CCC(c3cccc4c3CCO4)CC2)CC1)c1ccc(-c2cccnc2)cc1,224
15,CCCCN(C)Cc1[nH]c2ccccc2c1CC1C(=O)N(c2ccccc2)N=C1C (configuration not stated),180 to 200
16,O=c1[nH]c2ccccc2c2nc(-c3ccco3)nn12,338 to 343
17,COc1cc2c(cc1OC)C(c1cc(N)ccc1Cl)=NN=C(C)C2,188 to 190
18,CCc1cc(C(=O)c2ccccc2)c(O)cc1OCCCCC#N,42 to 44
19,Nc1ccccc1OC1CCCCC1,55 to 56
20,CC(C)Nc1nc(-n2cc(C(=O)O)c(=O)c3cc(F)c(N4CC(N)C4)c(Cl)c32)c(F)cc1F,220 to 223
21,C=CCOc1cccc([N+](=O)[O-])c1OC,93 to 94
22,COC(C)(C)C(C#N)=NOCc1coc(-c2ccc(F)cc2)n1,75 to 77

row,Structure (SMILES),melting point [°C]
1,CC(=O)C(=Cc1ccc(S(C)(=O)=O)cc1)C(C)=O,139 to 140
2,CNc1cc(F)ccc1C(=O)Cc1nnn[nH]1,214 to 216
3,O=C(Nc1ccc(F)cc1)NC1CC1,205
4,Cc1nc(-c2ccc(OCc3ccncc3)cc2)no1,132 to 133
5,Cc1nnc2ccc(-c3ccccc3Cl)nn12,146 to 148
6,O=C(CCNC(=O)C(=Cc1ccccc1)CSC(=O)c1ccccc1)OCc1ccccc1,60
7,CCOC(=O)C1CN(C)c2nc(Cl)ncc2C1=O (configuration not stated),175
8,CC(=O)SC(C)CC(=O)N1CCC[C@H]1C(=O)O (some centres not stated),175 to 176
9,COc1ccc(N2CCN(CCN3CC(C)(C)C3)C2=O)cc1Cl,93 to 95
10,NNc1cc(=O)[nH]c(N)n1,314 to 315
11,CC(C)OC(=O)C=CC(=O)NC(N)=O,113 to 114
12,COc1c(Cl)ccc(Cl)c1C(=O)NOCC(=O)O,145 to 154
13,CCCOc1nsc(N)c1C#N,122 to 125
14,COc1ccc2c(c1)C(=O)N(c1ccc3c(c1)N(C)CCN3C)C2,137 to 142
15,CCOc1cc(=O)n(C)c2ccccc12,80 to 82
16,CCNC(=S)NS(=O)(=O)c1cnccc1NC1CCCCCCC1,196 to 198
17,Cc1ccc(C(=O)Nc2ccccc2)cc1NC(=O)c1cc(Cl)cc(Cl)c1,202 to 205
18,CC1(S(=O)(=O)C2(C)C=CC=CC2O)C=CC=CC1O (configuration not stated),95 to 97
19,CCN(CC=C(Cl)Cl)C(=O)Nc1ccc(Cl)c(Cl)c1,105 to 106
20,COCC(=O)N(c1c(C)ccc2ccccc12)C(CCO)C(=O)OC (configuration not stated),132 to 137
21,Clc1ccc2c(NCC=CCNc3ccnc4cc(Cl)ccc34)ccnc2c1,> 250
22,CN(C)C1(Cc2ccccc2)CCC(c2[nH]c3ccccc3c2Cc2ccccc2)CC1 (configuration not stated),140 to 143
